Test results published in patent US20240101570A1 (AMGEN INC., priority 2020, published 2024).

Experiments:
HCT116 WT cells = assay: HCT116 WT cell proliferation / viability (CellTiter-Glo, 6 days); type: cell-based; conditions: Homo sapiens, HCT-116, 144 h, HCT116 WT cells, 6 days, CellTiter-Glo; read-out: HCT-116 WT IC50
Procedure, shortened: (§1)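 Viability read by CellTiter-Glo after 6-day compound exposure of MTAP-null and wild-type HCT116 cells grown in RPMI 1640 with 10% FBS. Dosing used 1:3 steps from 1 or 10 μM (8-9 points) or 1:2 steps from 10 or 50 μM (22 points); IC50 taken where fitted curve crosses 50% of control.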

HCT116 MTAP null cells = assay: HCT116 MTAP null cell proliferation / viability (CellTiter-Glo, 6 days); type: cell-based; conditions: HCT116-MTAP null, 144 h, HCT116 MTAP null cells, 6 days, CellTiter-Glo; read-out: HCT-116 MTAP null IC50
Procedure, shortened: as §1

Structure (SMILES) | IC50 (HCT116 WT cells) | IC50 (HCT116 MTAP null cells)
C[C@H](c1ncccn1)N(Cc1ccc(C#N)cn1)C(=O)c1ccc2nc(N)c3ccccc3c2c1 [Example 630, 6-amino-N-((5-cyano-2-pyridinyl)methyl)-N-((1R)-1-(2-pyrimidinyl)ethyl)-2-phenanthridinecarboxamide] | 408 nM | 19 nM
Nc1nc2ccc(C(=O)N(Cc3ccc(C(F)(F)F)cn3)Cc3ncccn3)cc2c2cnccc12 [Example 631, 5-amino-N-(2-pyrimidinylmethyl)-N-((5-(trifluoromethyl)-2-pyridinyl)methyl)benzo[c][2,6]naphthyridine-9-carboxamide] | 215 nM | 10 nM
CC(C)CN(Cc1ccc(C(F)(F)F)cn1)C(=O)c1ccc2nc(N)c3ccncc3c2c1 [Example 632, 5-amino-N-(2-methylpropyl)-N-((5-(trifluoromethyl)-2-pyridinyl)methyl)benzo[c][2,6]naphthyridine-9-carboxamide] | 231 nM | 11 nM
Nc1nc2ccc(C(=O)N(Cc3ccc(C(F)(F)F)cn3)Cc3ncccn3)cc2c2ccsc12 [Example 636, 4-amino-N-(2-pyrimidinylmethyl)-N-((5-(trifluoromethyl)-2-pyridinyl)methyl)thieno[2,3-c]quinoline-8-carboxamide] | 2990 nM | 149 nM
C[C@H](c1ncccn1)N(Cc1ccc(C(F)(F)F)cn1)C(=O)c1ccc2nc(N)c3ncncc3c2c1 [Example 638, 5-amino-N-((1R)-1-(2-pyrimidinyl)ethyl)-N-((5-(trifluoromethyl)-2-pyridinyl)methyl)pyrimido[4,5-c]quinoline-9-carboxamide] | 378 nM | 22 nM
COC[C@@H](C)N(Cc1ccc(Br)nn1)C(=O)c1ccc2nc(N)c3sccc3c2c1 [Example 643, 4-amino-N-((6-bromo-3-pyridazinyl)methyl)-N-((2R)-1-methoxy-2-propanyl)thieno[2,3-c]quinoline-8-carboxamide] | 1620 nM | 178 nM
C[C@H](c1ncccn1)N(Cc1ccc(C(F)(F)F)cn1)C(=O)c1ccc2nc(N)c3c(c2c1)COC3 [Example 653, 4-amino-N-((1R)-1-(2-pyrimidinyl)ethyl)-N-((5-(trifluoromethyl)-2-pyridinyl)methyl)-1,3-dihydrofuro[3,4-c]quinoline-8-carboxamide] | 73 nM | 8 nM
C[C@H](c1ncccn1)N(Cc1ccc(C(F)(F)F)cn1)C(=O)c1ccc2nc(N)c3c(c2c1)CCCC3 [Example 654, 6-amino-N-((1R)-1-(2-pyrimidinyl)ethyl)-N-((5-(trifluoromethyl)-2-pyridinyl)methyl)-7,8,9,10-tetrahydro-2-phenanthridinecarboxamide] | 171 nM | 9 nM
C[C@H](c1ncccn1)N(Cc1ccc(C(F)(F)F)cn1)C(=O)c1cc2c3c(c(N)nc2cc1Cl)COC3 [Example 655, 4-amino-7-chloro-N-((1R)-1-(2-pyrimidinyl)ethyl)-N-((5-(trifluoromethyl)-2-pyridinyl)methyl)-1,3-dihydrofuro[3,4-c]quinoline-8-carboxamide] | 294 nM | 16 nM
C[C@H](c1ncccn1)N(Cc1ccc(Br)cn1)C(=O)c1ccc2nc(N)c3c(c2c1)COC3 [Example 658, 4-amino-N-((5-bromo-2-pyridinyl)methyl)-N-((1R)-1-(2-pyrimidinyl)ethyl)-1,3-dihydrofuro[3,4-c]quinoline-8-carboxamide] | 71 nM | 6 nM
C[C@H](c1ncccn1)N(Cc1ccc(C#N)cn1)C(=O)c1ccc2nc(N)c3c(c2c1)COC3 [Example 659, 4-amino-N-((5-cyano-2-pyridinyl)methyl)-N-((1R)-1-(2-pyrimidinyl)ethyl)-1,3-dihydrofuro[3,4-c]quinoline-8-carboxamide] | 378 nM | 14 nM
C[C@H](c1ncn(C)n1)N(Cc1ccc(C(F)F)cn1)C(=O)c1ccc2nc(N)c3c(c2c1)COC3 [Example 662, 4-amino-N-((5-(difluoromethyl)-2-pyridinyl)methyl)-N-((1R)-1-(1-methyl-1H-1,2,4-triazol-3-yl)ethyl)-1,3-dihydrofuro[3,4-c]quinoline-8-carboxamide] | 290 nM | 29 nM
Nc1nc2ccc(C(=O)N(Cc3ccc(OC(F)(F)F)cn3)CC3CC3)cc2c2c1COC2 [Example 663, 4-amino-N-(cyclopropylmethyl)-N-((5-(trifluoromethoxy)-2-pyridinyl)methyl)-1,3-dihydrofuro[3,4-c]quinoline-8-carboxamide] | 1020 nM | 35 nM
CC(C)CN(Cc1ccc(C(F)(F)F)nn1)C(=O)c1ccc2nc(N)c3c(c2c1)COC3 [Example 664, 4-amino-N-(2-methylpropyl)-N-((6-(trifluoromethyl)-3-pyridazinyl)methyl)-1,3-dihydrofuro[3,4-c]quinoline-8-carboxamide] | 1390 nM | 38 nM

Second part, the molecule after the results:

IC50 (HCT116 WT cells) | IC50 (HCT116 MTAP null cells) | Structure (SMILES)
1190 nM | 119 nM | C[C@H](c1ncccc1F)N(Cc1ccc(C(F)(F)F)nn1)C(=O)c1cnc2nc(N)c3c(c2c1)CCC3 [Example 628, 6-amino-N-((1R)-1-(3-fluoro-2-pyridinyl)ethyl)-N-((6-(trifluoromethyl)-3-pyridazinyl)methyl)-8,9-dihydro-7H-cyclopenta[c][1,8]naphthyridine-2-carboxamide]
398 nM | 16 nM | C[C@H](c1ncccn1)N(Cc1ccc(C(F)(F)F)cn1)C(=O)c1ccc2nc(N)c3ccccc3c2c1 [Example 629, 6-amino-N-((1R)-1-(2-pyrimidinyl)ethyl)-N-((5-(trifluoromethyl)-2-pyridinyl)methyl)-2-phenanthridinecarboxamide]
71 nM | 13 nM | C[C@H](c1ncccn1)N(Cc1ccc(C(F)(F)F)cn1)C(=O)c1ccc2nc(N)c3ccncc3c2c1 [Example 633, 5-amino-N-((1R)-1-(2-pyrimidinyl)ethyl)-N-((5-(trifluoromethyl)-2-pyridinyl)methyl)benzo[c][2,6]naphthyridine-9-carboxamide]
1210 nM | 73 nM | Nc1nc2ccc(C(=O)N(Cc3ccc(C(F)(F)F)cn3)Cc3ncccc3F)cc2c2ccsc12 [Example 635, 4-amino-N-((3-fluoro-2-pyridinyl)methyl)-N-((5-(trifluoromethyl)-2-pyridinyl)methyl)thieno[2,3-c]quinoline-8-carboxamide]
3220 nM | 212 nM | CC(C)CN(Cc1ccc(C(F)(F)F)cn1)C(=O)c1ccc2nc(N)c3sccc3c2c1 [Example 637, 4-amino-N-(2-methylpropyl)-N-((5-(trifluoromethyl)-2-pyridinyl)methyl)thieno[2,3-c]quinoline-8-carboxamide]
242 nM | 16 nM | COC[C@H](C1CC1)N(Cc1ccc(N2CCOCC2)nn1)C(=O)c1ccc2nc(N)c3c(c2c1)COC3 [Example 641, 4-amino-N-((1S)-1-cyclopropyl-2-methoxyethyl)-N-((6-(4-morpholinyl)-3-pyridazinyl)methyl)-1,3-dihydrofuro[3,4-c]quinoline-8-carboxamide]
1300 nM | 41 nM | CCOc1ccc(CN(CC(C)C)C(=O)c2ccc3nc(N)c4c(c3c2)COC4)nn1 [Example 642, 4-amino-N-((6-ethoxy-3-pyridazinyl)methyl)-N-(2-methylpropyl)-1,3-dihydrofuro[3,4-c]quinoline-8-carboxamide]
> 10000 nM | 2790 nM | COCC(C)(C)N(Cc1ccc(Br)nn1)C(=O)c1ccc2nc(N)c3c(c2c1)COC3 [Example 644, 4-amino-N-((6-bromo-3-pyridazinyl)methyl)-N-(1-methoxy-2-methyl-2-propanyl)-1,3-dihydrofuro[3,4-c]quinoline-8-carboxamide]
> 50000 nM | ≥ 50000 nM | COCC(C)(C)N(Cc1ccc(Br)nn1)C(=O)c1cc2c3c(c(N)nc2cn1)COC3 [Example 645, 4-amino-N-((6-bromo-3-pyridazinyl)methyl)-N-(1-methoxy-2-methyl-2-propanyl)-1,3-dihydrofuro[3,4-c][1,7]naphthyridine-8-carboxamide]
1390 nM | 50 nM | Nc1nc2cnc(C(=O)N(Cc3ccc(C(F)(F)F)cn3)CC3CC3)cc2c2c1COC2 [Example 652, 4-amino-N-(cyclopropylmethyl)-N-((5-(trifluoromethyl)pyridin-2-yl)methyl)-1,3-dihydrofuro[3,4-c][1,7]naphthyridine-8-carboxamide]
1260 nM | 19 nM | Nc1nc2cc(Cl)c(C(=O)N(Cc3ccc(C(F)(F)F)cn3)C3CC3)cc2c2c1COC2 [Example 656, 4-amino-7-chloro-N-cyclopropyl-N-((5-(trifluoromethyl)-2-pyridinyl)methyl)-1,3-dihydrofuro[3,4-c]quinoline-8-carboxamide]
196 nM | 13 nM | C[C@H](c1ncccn1)N(Cc1ccc(Br)nn1)C(=O)c1ccc2nc(N)c3c(c2c1)COC3 [Example 657, 4-amino-N-((6-bromo-3-pyridazinyl)methyl)-N-((1R)-1-(2-pyrimidinyl)ethyl)-1,3-dihydrofuro[3,4-c]quinoline-8-carboxamide]
> 10000 nM | 354 nM | Nc1nc2ccc(C(=O)N(Cc3ccc(C(F)(F)F)nn3)C3CC(F)(F)C3)cc2c2c1COC2 [Example 660, 4-amino-N-(3,3-difluorocyclobutyl)-N-((6-(trifluoromethyl)-3-pyridazinyl)methyl)-1,3-dihydrofuro[3,4-c]quinoline-8-carboxamide]
26200 nM | 303 nM | Nc1nc2ccc(C(=O)N(Cc3ccc(C(F)(F)F)nn3)C3CC3)cc2c2c1COC2 [Example 661, 4-amino-N-cyclopropyl-N-((6-(trifluoromethyl)-3-pyridazinyl)methyl)-1,3-dihydrofuro[3,4-c]quinoline-8-carboxamide]
